Patent US6763607B2, “Method for making homogeneous spray-dried solid amorphous drug dispersions utilizing modified spray-drying apparatus” (Pfizer Inc., priority 2002, dated 2004)

Assay: in vitro dissolution test (concentration enhancement) in PBS, microcentrifuge method
Type: physicochemical
Details: PBS pH 6.5, 37° C.
Experimental: For this test, samples containing 7.2 mg of Example 1 were added to microcentrifuge tubes, in duplicate. The tubes were placed in a 37° C. temperature-controlled chamber, and 1.8 mL PBS at pH 6.5 and 290 mOsm/kg was added. The samples were quickly mixed using a vortex mixer for about 60 seconds. The samples were centrifuged at 13,000 G at 37° C. for 1 minute. […] The contents of the tubes were mixed on the vortex mixer and allowed to stand undisturbed at 37° C. until the next sample was taken. […] Control 1 and crystalline Drug 1 were tested using the same procedure. The concentration of drug obtained in these samples were used to determine the values of the maximum concentration of drug in the first ninety minutes (Cmax90) and the area under the curve of drug concentration versus time in the first ninety minutes (AUC90). […] The physical properties of the dispersions of Example 3, Control C2 and crystalline Drug 2 alone were determined as Example 1 with the following exceptions. […] Samples were analyzed by HPLC, with absorbance at 297 nm (Hewlett Packard 1100 HPLC, Zorbax SB C18 column, 35% acetonitrile/65% H2O).

[1] = Drug 2, 2000 μg/mL if all of the drug had dissolved

| SMILES | AUC90 (Drug 1, area under drug concentration versus time curve in the first ninety minutes) [µg·min/mL] | Cmax90 (Drug 1, maximum concentration of drug in the first ninety minutes) [µg/mL] | Drug 1 Concentration (supernatant after centrifugation, time 0 min) [µg/mL] | Drug 1 AUC (time 0 min) [min-μg/ml] | Drug 1 AUC (time 4 min) [min-μg/ml] | Drug 1 Concentration (time 4 min) [µg/mL] | Drug 1 AUC (time 10 min) [min-μg/ml] | Drug 1 Concentration (time 10 min) [µg/mL] | Drug 1 AUC (time 20 min) [min-μg/ml] | Drug 1 Concentration (time 20 min) [µg/mL] | Drug 1 AUC (time 40 min) [min-μg/ml] | Drug 1 Concentration (time 40 min) [µg/mL] | Drug 1 AUC (time 90 min) [min-μg/ml] | Drug 1 Concentration (time 90 min) [µg/mL] | Drug 1 AUC (time 1200 min) | Drug 1 Concentration (time 1200 min) [µg/mL] | AUC90 [1] | Cmax90 [1] [µg/mL] |
| --- | --- | --- | --- | --- | --- | --- | --- | --- | --- | --- | --- | --- | --- | --- | --- | --- | --- | --- |
| CCOC(=O)N1c2ccc(C(F)(F)F)cc2C(N(Cc2cc(C(F)(F)F)cc(C(F)(F)F)c2)C(=O)OC)CC1CC (stereo not drawn) [Crystalline Drug 1, 4-[(3,5-bis-trifluoromethyl-benzyl)-methoxycarbonyl-amino]-2-ethyl-6-trifluoromethyl-3,4-dihydro-2H-quinoline-1-carboxylic acid ethyl ester] | <88 | <1 | 0 | 0 | <2 | <1 | <8 | <1 | <18 | <1 | <38 | <1 | <88 | <1 | <1,200 min-μg/ml | <1 |  |  |
| O=C(N[C@@H](Cc1ccccc1)[C@@H](O)C(=O)N1C[C@@H](O)[C@@H](O)C1)c1cc2cc(Cl)ccc2[nH]1 [Crystalline Drug 2, 5-chloro-1H-indole-2-carboxylic acid [(1S)-benzyl-(2R)-hydroxy-3-((3R,4S)-dihydroxy-pyrrolidin-1-yl-)-3-oxypropyl]amide] |  |  |  |  |  |  |  |  |  |  |  |  |  |  |  |  | 12,800 min*μg/mL | 149 |
